Measured values taken from patent publication US8124778B2, “Tricyclic inhibitors of fatty acid amide hydrolase” (The Scripps Research Institute, priority 2007, dated 2012).

Legend:
KIAA1363 = target: T1, KIAA1363 (Mus musculus, UniProt Q8BLF1); test: Proteome-wide selectivity screening, KIAA1363; assay type: biochemical; conditions: IC50 based
T1 construct: from tissue
T1 sequence (Q8BLF1 1-408): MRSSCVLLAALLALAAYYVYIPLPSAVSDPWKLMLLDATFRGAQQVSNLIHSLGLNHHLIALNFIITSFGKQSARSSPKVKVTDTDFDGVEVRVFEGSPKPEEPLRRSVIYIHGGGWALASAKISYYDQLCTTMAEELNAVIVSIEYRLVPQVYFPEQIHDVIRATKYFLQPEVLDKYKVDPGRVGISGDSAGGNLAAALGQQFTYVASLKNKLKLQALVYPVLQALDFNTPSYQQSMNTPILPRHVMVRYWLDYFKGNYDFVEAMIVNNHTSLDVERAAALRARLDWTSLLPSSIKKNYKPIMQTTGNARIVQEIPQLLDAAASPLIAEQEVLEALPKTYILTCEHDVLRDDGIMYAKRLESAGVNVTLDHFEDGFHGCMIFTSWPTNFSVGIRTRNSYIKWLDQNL
Excerpt: (§1) The present invention concerns the synthesis and evaluation of a systematic series of α-keto oxazole inhibitors having variations at the C2 acyl side chain along with results of the proteome-wide selectivity screening of the candidate inhibitors. The screening protocol is described by Leung, D.; Hardouin, C.; et al. Nature Biotech. 2003, 21, 687-691.
(§2) Selectivity Screening. […] Consequently a method for proteomic-wide screening capable of globally profiling all mammalian serine hydrolases was developed (Leung, D.; Hardouin, C.; et al. Nature Biotech. 2003, 21, 687-691) and studies have shown that the α-ketoheterocycle class of inhibitors generally are exquisitely selective for FAAH (Boger, D. L.; Miyauchi, H.; et al. J. Med. Chem. 2005, 48, 1849-1856; Leung, D.; Du, W.; et al. Bioorg. Med. Chem. Lett. 2005, 15, 1423-1428; Lichtman, A. H.; Leung, D.; et al. J. Pharmacol. Exp. Ther. 2004, 311, 441-448). However, two enzymes did emerge as potential competitive targets: triacylglycerol hydrolase (TGH) and an uncharacterized membrane-associated hydrolase that lacks known substrates or function (KIAA1363). In this screen, IC50 values are typically higher than the measured Ki values, but the relative potency, the magnitude of binding affinity differences and the rank order binding determined in the assay parallels that established by standard substrate assays. […]

[1] = target: T2, triacylglycerol hydrolase (TGH) (Mus musculus, UniProt Q8VCT4); test: Proteome-wide selectivity screening, TGH; assay type: biochemical; conditions: IC50 based
T2 construct: from tissue
T2 sequence (Q8VCT4 19-565): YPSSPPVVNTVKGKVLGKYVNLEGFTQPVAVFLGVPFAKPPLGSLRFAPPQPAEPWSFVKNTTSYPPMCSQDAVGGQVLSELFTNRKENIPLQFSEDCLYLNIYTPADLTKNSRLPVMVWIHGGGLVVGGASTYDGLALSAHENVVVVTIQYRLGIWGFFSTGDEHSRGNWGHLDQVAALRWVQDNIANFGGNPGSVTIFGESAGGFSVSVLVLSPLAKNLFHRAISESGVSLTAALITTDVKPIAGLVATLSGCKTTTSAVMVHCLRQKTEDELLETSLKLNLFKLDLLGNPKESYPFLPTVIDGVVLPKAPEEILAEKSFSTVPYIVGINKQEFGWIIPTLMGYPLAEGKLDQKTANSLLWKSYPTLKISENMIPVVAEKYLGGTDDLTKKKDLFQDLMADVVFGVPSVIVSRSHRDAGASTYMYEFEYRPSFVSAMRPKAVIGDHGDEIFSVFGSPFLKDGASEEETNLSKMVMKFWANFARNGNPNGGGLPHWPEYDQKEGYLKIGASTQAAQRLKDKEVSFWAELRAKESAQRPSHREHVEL
Excerpt: as §1, §2

selectivity for FAAH over KIAA1363 (in words) (KIAA1363) | selectivity for FAAH over TGH (in words) [1] | Compound
very selective | moderately selective | O=C(CCCCCCc1cccnc1)c1ncc(-c2ccccn2)o1 [5f, 1-Oxo-1-[5-(2-pyridyl)oxazol-2-yl]-7-(3-pyridyl)heptane]
very selective | moderately selective | O=C(CCCCCCc1ccccn1)c1ncc(-c2ccccn2)o1 [5e, 1-Oxo-1-[5-(2-pyridyl)oxazol-2-yl]-7-(2-pyridyl)heptane]
